{"source": "patent US20070003591A1", "about": "“USE OF A PROPOLIS AS A COATING MATERIAL FOR MEDICAL IMPLANTS” (priority 2005, published 2007)", "origin": "cited, not measured here", "key": {"[1]": {"tested_on": "transcription factor FKB in T cells", "details": "Márquez et al. 2004"}, "[2]": {"tested_on": "transcription factor FKB in human breast cancer cells of the type MCF-7", "details": "MCF-7 cells; Watabe et al. 2004"}}}
{"molecule": "O=C(/C=C/c1ccc(O)c(O)c1)OCCc1ccccc1", "note": "[caffeic acid phenylethyl ester]", "values": [{"measurement": "inhibitor of the transcription factor FKB", "setting": "[1]", "result": "inhibitor"}, {"measurement": "inhibitor of the transcription factor FKB", "setting": "[2]", "result": "inhibitor"}]}
